US20070142295A1, “Thrombopoietic compounds” (AMGEN INC., priority 1998, published 2007)
Where two headings read alike, the source gives them in different places. Positions of bridges follow the written chain, without caps; N, C: chain ends. Residues, ends and D or L forms follow the SMILES beside them. No end group written: not given here. PEG = not defined here

Key:
human mpl receptor = target: T1, human mpl receptor (Homo sapiens, UniProt P40238); assay: TPO in vitro bioassay: mitogenic/cell-proliferation assay with IL-3 dependent murine 32D cells transfected with human mpl receptor; assay type: cell-based; conditions: cell proliferation assay
T1 construct: murine 32D cells transfected with the full-length c-Mp1; expressed in transfected cells; host or cells: IL-3 dependent clone of murine 32D cells
T1 sequence (P40238 26-635): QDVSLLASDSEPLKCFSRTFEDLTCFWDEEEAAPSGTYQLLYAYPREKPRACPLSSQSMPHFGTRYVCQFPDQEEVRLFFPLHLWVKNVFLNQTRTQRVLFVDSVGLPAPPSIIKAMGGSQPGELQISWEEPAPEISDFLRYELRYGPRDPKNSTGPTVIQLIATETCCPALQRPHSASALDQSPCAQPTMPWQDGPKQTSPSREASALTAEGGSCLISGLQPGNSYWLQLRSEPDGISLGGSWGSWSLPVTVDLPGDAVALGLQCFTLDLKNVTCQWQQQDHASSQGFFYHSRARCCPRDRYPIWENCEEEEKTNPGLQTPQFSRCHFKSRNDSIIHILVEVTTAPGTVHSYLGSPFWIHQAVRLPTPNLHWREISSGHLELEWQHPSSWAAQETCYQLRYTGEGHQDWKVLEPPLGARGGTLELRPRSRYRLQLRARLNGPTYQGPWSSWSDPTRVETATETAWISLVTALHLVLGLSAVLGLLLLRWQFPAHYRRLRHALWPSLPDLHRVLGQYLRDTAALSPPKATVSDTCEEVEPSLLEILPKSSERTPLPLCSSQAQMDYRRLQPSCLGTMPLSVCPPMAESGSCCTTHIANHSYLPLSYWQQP
Method: Bioactivity assay. The TPO in vitro bioassay is a mitogenic assay utilizing an IL-3 dependent clone of murine 32D cells that have been transfected with human mpl receptor. This assay is described in greater detail in WO 95/26746. Cells are maintained in MEM medium containing 10% Fetal Clone II and 1 ng/ml mIL-3. Prior to sample addition, cells are prepared by rinsing twice with growth medium lacking mIL-3. An extended twelve point TPO standard curve is prepared, ranging from 3333 to 39 pg/ml. Four dilutions, estimated to fall within the linear portion of the standard curve, (1000 to 125 pg/ml), are prepared for each sample and run in triplicate. A volume of 100 μl of each dilution of sample or standard is added to appropriate wells of a 96 well microtiter plate containing 10,000 cells/well. After forty-four hours at 37° C. and 10% CO2, MTS (a tetrazolium compound which is bioreduced by cells to a formazan) is added to each well. Approximately six hours later, the optical density is read on a plate reader at 490 nm. A dose response curve (log TPO concentration vs. O.D.—Background) is generated and linear regression analysis of points which fall in the linear portion of the standard curve is performed. Concentrations of unknown test samples are determined using the resulting linear equation and a correction for the dilution factor.
The resulting peptides are readily accessible by conventional solid phase peptide synthesis methods (Merrifiled, R. B., Journal of the American Chemical Society 85:2149 (1963)) with either Fmoc or t-Boc chemistry. […] This might be due to differences in the conditions used in the two assays. […] It is interesting to note that a wide range of length is tolerated by the linker. The optimal linker with the selected TMP monomers (SEQ ID NO: 1) apparently is composed of 8 glycines.

c-Mp1 [1] = target: T2, c-Mp1 (Homo sapiens, UniProt P40238); conditions: cited from earlier work
T2 sequence (P40238 26-635): T1 sequence (P40238 26-635)

c-Mp1 [2] = target: T2, c-Mp1; conditions: cited from earlier work; remark: listed apart in the source
platelets = assay: platelet production in normal mice, dose response with 7-day micro-osmotic pumps; assay type: in vivo
Method: Mice. Normal female BDF1 approximately 10-12 weeks of age.
Bleed schedule. Ten mice per group treated on day 0, two groups started 4 days apart for a total of 20 mice per group. Five mice bled at each time point, mice were bled a minimum of three times a week. Mice were anesthetized with isoflurane and a total volume of 140-160 μl of blood was obtained by puncture of the orbital sinus. Blood was counted on a Technicon HIE blood analyzer running software for murine blood. Parameters measured were white blood cells, red blood cells, hematocrit, hemoglobin, platelets, neutrophils.
Treatments. Mice were either injected subcutaneously for a bolus treatment or implanted with 7 day micro-osmotic pumps for continuous delivery. Subcutaneous injections were delivered in a volume of 0.2 ml. Osmotic pumps were inserted into a subcutaneous incision made in the skin between the scapulae of anesthetized mice. Compounds were diluted in PBS with 0.1% BSA. All experiments included one control group, labeled “carrier” that were treated with this diluent only. The concentration of the test articles in the pumps was adjusted so that the calibrated flow rate from the pumps gave the treatment levels indicated in the graphs.
Compounds. A dose titration of the compound was delivered to mice in 7 day micro-osmotic pumps. Mice were treated with various compounds at a single dose of 100 ug/kg in 7 day osmotic pumps. Some of the same compounds were then given to mice as a single bolus injection.

With `CC[C@H](C)[C@H](N)C(=O)N[C@@H](CCC(=O)O)C(=O)NCC(=O)N1CCC[C@H]1C(=O)N[C@H](C(=O)N[C@@H](CC(C)C)C(=O)N[C@@H](CCCNC(=N)N)C(=O)N[C@@H](CCC(N)=O)C(=O)N[C@H]1CSSC[C@@H](C(=O)N[C@@H](CC(C)C)C(=O)N[C@@H](C)C(=O)N[C@@H](C)C(=O)N[C@@H](CCCNC(=N)N)C(=O)N[C@@H](C)C(=O)O)NC(=O)[C@H](CCC(N)=O)NC(=O)[C@H](CCCNC(=N)N)NC(=O)[C@H](CC(C)C)NC(=O)[C@H]([C@@H](C)O)NC(=O)[C@@H]2CCCN2C(=O)CNC(=O)[C@H](CCC(=O)O)NC(=O)[C@H]([C@@H](C)CC)NC(=O)CNC(=O)CNC(=O)CNC(=O)CNC(=O)CNC(=O)CNC(=O)CNC(=O)CNC(=O)[C@H](C)NC(=O)[C@H](CCCNC(=N)N)NC(=O)[C@H](C)NC(=O)[C@H](C)NC(=O)[C@H](CC(C)C)NC1=O)[C@@H](C)O` [Peptide 14] (H-IEGPTLRQCLAARAGGGGGGGGIEGPTLRQCLAARA-OH; disulfide 9-31; N-terminus assumed) as the compound, how does the “in vitro bioactivity, in words” value (human mpl receptor) read?
The value was “inactive”.

Which “in vitro bioactivity, in words” value (human mpl receptor) does the source give for `CC[C@H](C)[C@H](N)C(=O)N[C@@H](CCC(=O)O)C(=O)NCC(=O)N1CCC[C@H]1C(=O)N[C@H](C(=O)N[C@@H](CC(C)C)C(=O)N[C@@H](CCCNC(=N)N)C(=O)N[C@@H](CCC(N)=O)C(=O)N[C@@H](CS)C(=O)N[C@@H](CC(C)C)C(=O)N[C@@H](C)C(=O)N[C@@H](C)C(=O)N[C@@H](CCCNC(=N)N)C(=O)N[C@@H](C)C(=O)NCC(=O)NCC(=O)NCC(=O)NCC(=O)NCC(=O)NCC(=O)NCC(=O)NCC(=O)N[C@H](C(=O)N[C@@H](CCC(=O)O)C(=O)NCC(=O)N1CCC[C@H]1C(=O)N[C@H](C(=O)N[C@@H](CC(C)C)C(=O)N[C@@H](CCCNC(=N)N)C(=O)N[C@@H](CCC(N)=O)C(=O)N[C@@H](CS)C(=O)N[C@@H](CC(C)C)C(=O)N[C@@H](C)C(=O)N[C@@H](C)C(=O)N[C@@H](CCCNC(=N)N)C(=O)N[C@@H](C)C(=O)O)[C@@H](C)O)[C@@H](C)CC)[C@@H](C)O` [Peptide 15, IEGPTLRQCLAARA-GGGGGGGG-IEGPTLRQCLAARA] (H-IEGPTLRQCLAARAGGGGGGGGIEGPTLRQCLAARA-OH; N-terminus assumed) here?
Its value is “inactive”.

For `CC[C@H](C)[C@H](N)C(=O)N[C@@H](CCC(=O)O)C(=O)NCC(=O)N1CCC[C@H]1C(=O)N[C@H](C(=O)N[C@@H](CC(C)C)C(=O)N[C@@H](CCCNC(=N)N)C(=O)N[C@@H](CCC(N)=O)C(=O)N[C@@H](Cc1c[nH]c2ccccc12)C(=O)N[C@@H](CC(C)C)C(=O)N[C@@H](C)C(=O)N[C@@H](C)C(=O)N[C@@H](CCCNC(=N)N)C(=O)N[C@@H](C)C(=O)NCCCC[C@H](NC(=O)CCNC(=O)[C@H](C)NC(=O)[C@H](CCCNC(=N)N)NC(=O)[C@H](C)NC(=O)[C@H](C)NC(=O)[C@H](CC(C)C)NC(=O)[C@H](Cc1c[nH]c2ccccc12)NC(=O)[C@H](CCC(N)=O)NC(=O)[C@H](CCCNC(=N)N)NC(=O)[C@H](CC(C)C)NC(=O)[C@@H](NC(=O)[C@@H]1CCCN1C(=O)CNC(=O)[C@H](CCC(=O)O)NC(=O)[C@@H](N)[C@@H](C)CC)[C@@H](C)O)C(N)=O)[C@@H](C)O` [TMP C-C dimer], which IC50 (c-Mp1 [1]; read-out: binding affinity) is on record?
Its IC50 is 0.5 nM.

What about the EC50 (c-Mp1 [2]) of the same compound?
Its EC50 is 0.1 nM.

For “IEGPTLRQALAARAGGGGGGGGIEGPTLRQALAARA-OH [Peptide 16, IEGPTLRQALAARA-GGGGGGGG-IEGPTLRQALAARA]”, which “in vitro bioactivity, in words” value (human mpl receptor) is on record?
The value was “inactive”.

Which results are given for “IEGPTLRQWLAARA-OH [TMP monomer, IEGPTLRQWLAARA]”?
IC50 (c-Mp1 [1]; read-out: IC50): 2 nM; EC50 (c-Mp1 [2]): 400 nM

With “IEGPTLRQWLAARAGGGNGSGGIEGPTLRQWLAARA-OH [Peptide 21, TMP-GGGNGSGG-TMP]” as the compound, how does the “in vitro bioactivity, in words” value (human mpl receptor) read?
Its value is “activity comparable to that of the -(Gly)8-linked analog”.

What does the source list for “IEGPTLRQWLAARAGPNGIEGPTLRQWLAARA-OH [Peptide 13, TMP-GPNG-TMP]”?
fold increase in potency as compared to the monomer (human mpl receptor): about 100 fold; fold less active than the GGGG-linked analog (human mpl receptor): > 10 fold

With “TMP-GGGC(PEG)GGGG-TMP (IEGPTLRQWLAARAGGGC(PEG)GGGGIEGPTLRQWLAARA; reading uncertain) [Peptide 20]” as the compound, how does the “in vitro bioactivity, in words” value (human mpl receptor) read?
The value was “higher in vitro bioactivity as compared to their unpegylated counterparts”.

And the “activity compared with unpegylated rHu-MGDF” value (platelets; 10 μg/kg/day vs 100 μg/kg/day unpegylated rHu-MGDF, same experiment)?
The value was “about equally active”.

What about the “percent of maximal activity” value (platelets; 10 μg/kg/day, 7-day micro-osmotic pumps) of the same compound?
Its value is “about 50%”.

What about the “dose at which the maximum effect was seen” value (platelets; 7-day micro-osmotic pumps, data not shown) of the same compound?
Its value is 100 µg/kg/day.

With “TMP-GGGK(PEG)GGGG-TMP (IEGPTLRQWLAARAGGGK(PEG)GGGGIEGPTLRQWLAARA; reading uncertain) [Peptide 19]” as the compound, how does the “in vitro bioactivity, in words” value (human mpl receptor) read?
The value was “higher in vitro bioactivity as compared to their unpegylated counterparts”.
